Experimental data published in patent US10927125B2, “Substituted cinnolines as inhibitors of KRAS G12C” (Araxes Pharma LLC, priority 2013, dated 2021).

Molecular target: T1, KRAS G12C 1-169, his-tagged protein, GDP-loaded (Homo sapiens, UniProt P01116, G12C)
T1 construct: KRAS G12C 1-169, his-tagged protein, GDP-loaded
Assay: Biochemical assay: covalent binding of compounds to KRAS G12C, analysed by mass spectrometry
Experimental: Compounds were tested for activity as follows:
Compounds were diluted to 50× final test concentration in DMSO in 96-well storage plates. […] Reactions were mixed carefully and thoroughly by pipetting up/down with a 200 μl multi-channel pipettor. The plate was sealed well with aluminum plate seal, and stored in drawer at room temperature for 30 min, 2 hour or 24 hrs. 51 μl of 2% formic acid (Fisher cat # A117) in DI H2O was then added to each well followed by mixing with a pipette. The plate was then resealed with aluminum seal and stored on dry ice until analyzed as described below.
The above described assays were analyzed by mass spectrometry according to the following procedure:
The MS instrument is set to positive polarity, 2 GHz resolution, and low mass (1700) mode and allowed to equilibrate for 30 minutes. The instrument is then calibrated, switched to acquisition mode and the appropriate method loaded.
After another 30 minute equilibration time, a blank batch (i.e., buffer) is run to ensure equipment is operating properly. The samples are thawed at 37° C. for 10 minutes, briefly centrifuged, and transfer to the bench top. Wells A1 and H12 are spiked with 1 uL 500 uM internal standard peptide, and the plates centrifuged at 2000×g for 5 minutes. The method is then run and masses of each individual well recorded.
The masses (for which integration data is desired) for each well are pasted into the platemap and exported from the analysis. Masses for the internal standards are exported as well. The data at 50 ppm is extracted for the +19 charge state, and identity of well A1 is assigned using the internal standard spike and integrated. Peak data is exported as a TOF list and the above steps are repeated individually, for the +20, 21, 22, 23, 24, and 25 charge states.

[1] = binding measured at 30 min (compounds 247-375)
[2] = binding measured at 2 h (compounds 48-246)
[3] = binding measured at 24 h (compounds 1-47)

T1 sequence (P01116 1-169 isoform P01116-2 G12C): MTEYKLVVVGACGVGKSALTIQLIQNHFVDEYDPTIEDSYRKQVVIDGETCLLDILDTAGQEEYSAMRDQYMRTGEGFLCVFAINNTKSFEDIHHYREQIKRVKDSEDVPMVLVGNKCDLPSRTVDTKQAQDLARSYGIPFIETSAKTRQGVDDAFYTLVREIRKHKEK

C=CC(=O)N1CCN(c2nc(NC3CCN(C)CC3)nc3c(F)c(-c4c(C)ccc5[nH]ncc45)c(Cl)cc23)CC1 [Compound 363, 1-(4-(6-chloro-8-fluoro-7-(5-methyl-1H-indazol-4-yl)-2-(1-methylpiperidin-4-ylamino)quinazolin-4-yl)piperazin-1-yl)prop-2-en-1-one]
Binding % [1]: ++++ (++++ indicates binding activity greater than 75%)

C=CC(=O)N1CCN(c2ncnc3cc(-c4c(O)cccc4F)c(Cl)cc23)CC1 [Compound 138, 1-(4-(6-chloro-7-(2-fluoro-6-hydroxyphenyl)quinazolin-4-yl)piperazin-1-yl)prop-2-en-1-one]
Binding % [2]: ++++ (++++ indicates binding activity greater than 75%)

C=CC(=O)N1CCN(c2nc(N(C)CCN(C)C)nc3c(F)c(-c4cc(O)cc5ccccc45)c(Cl)cc23)CC1 [Compound 361, 1-(4-(6-chloro-2-((2-(dimethylamino)ethyl)(meth-yl)amino)-8-fluoro-7-(3-hydroxynaphthalen-1-yl)quinazolin-4-yl)piperazin-1-yl)prop-2-en-1-one]
Binding % [1]: ++++ (++++ indicates binding activity greater than 75%)

C=CC(=O)N1CCN(c2nc(OCCCN3CCOCC3)nc3c(F)c(-c4c(C)ccc5[nH]ncc45)c(Cl)cc23)CC1 [Compound 357, 1-(4-(6-chloro-8-fluoro-7-(5-methyl-1H-indazol-4-yl)-2-(3-morpholinopropoxy)quinazolin-4-yl)piperazin-1-yl)prop-2-en-1-one]
Binding % [1]: ++++ (++++ indicates binding activity greater than 75%)

C=CC(=O)N1CCN(c2ncnc3cc(N4CCCCC4)c(Cl)cc23)CC1 [Compound 80, 1-(4-(6-chloro-7-(piperidin-1-yl)quinazolin-4-yl)piperazin-1-yl)prop-2-en-1-one]
Binding % [2]: + (+ indicates binding activity from 5% to 25%)

C=CC(=O)N1CCN(c2nc(OCCNC(C)=O)nc3c(F)c(-c4c(C)ccc5[nH]ncc45)c(Cl)cc23)CC1 [Compound 366, N-(2-(4-(4-acryloylpiperazin-1-yl)-6-chloro-8-fluoro-7-(5-methyl-1H-indazol-4-yl)quinazolin-2-yloxy)ethyl)acetamide]
Binding % [1]: ++++ (++++ indicates binding activity greater than 75%)

C=CC(=O)N1CCN(c2nc(OCCc3nccn3C)nc3c(F)c(-c4c(C)ccc5[nH]ncc45)c(Cl)cc23)CC1 [Compound 369, 1-(4-(6-chloro-8-fluoro-2-(2-(1-methyl-1H-imidazol-2-yl)ethoxy)-7-(5-methyl-1H-indazol-4-yl)quinazolin-4-yl)piperazin-1-yl)prop-2-en-1-one]
Binding % [1]: ++++ (++++ indicates binding activity greater than 75%)

C=CC(=O)N1CCN(c2ncnc3cc(Cl)c(-c4ccc(Br)cc4)cc23)CC1 [Compound 40, 1-(4-(6-(4-bromophenyl)-7-chloroquinazolin-4-yl)piperazin-1-yl)prop-2-en-1-one]
Binding % [3]: +++ (+++ indicates binding activity greater than 50% and up to 75%)

C#Cc1cnc2cc(-c3ccccc3F)c(Cl)cc2c1N1CCN(C(=O)C=C)CC1 [Compound 215, 1-(4-(6-chloro-3-ethynyl-7-(2-fluorophenyl)quinolin-4-yl)piperazin-1-yl)prop-2-en-1-one]
Binding % [2]: ++ (++ indicates binding activity greater than 25% and up to 50%)

C/C=C/C(=O)N1CCN(c2ncnc3c(F)c(-c4cc(O)cc5ccccc45)c(Cl)cc23)CC1 [Compound 328, (E)-1-(4-(6-chloro-8-fluoro-7-(3-hydroxynaphthalen-1-yl)quinazolin-4-yl)piperazin-1-yl)but-2-en-1-one]
Binding % [1]: + (+ indicates binding activity from 5% to 25%)

C=CC(=O)N1CCN(c2nc(N(C)CCN(C)C)nc3c(F)c(-c4c(C)ccc5[nH]ncc45)c(Cl)cc23)CC1 [Compound 371, 1-(4-(6-chloro-2-((2-(dimethylamino)ethyl)(meth-yl)amino)-8-fluoro-7-(5-methyl-1H-indazol-4-yl)quinazolin-4-yl)piperazin-1-yl)prop-2-en-1-one]
Binding % [1]: ++ (++ indicates binding activity greater than 25% and up to 50%)

C=CC(=O)N1CCN(c2ncnc3cc(-c4cc(O)c(F)cc4F)c(Cl)cc23)CC1 [Compound 206, 1-(4-(6-chloro-7-(2,4-difluoro-5-hydroxyphenyl)quinazolin-4-yl)piperazin-1-yl)prop-2-en-1-one]
Binding % [2]: +++ (+++ indicates binding activity greater than 50% and up to 75%)

C=CC(=O)N1CCN(c2ncnc3c(F)c(-c4cc(O)cc5ccccc45)c(Cl)cc23)CC1CN(C)C (stereo not drawn) [Compound 346, 1-(4-(6-chloro-8-fluoro-7-(3-hydroxynaphthalen-1-yl)quinazolin-4-yl)-2-((dimethylamino)meth-yl)piperazin-1-yl)prop-2-en-1-one]
Binding % [1]: ++++ (++++ indicates binding activity greater than 75%)

C=CC(=O)N1CCN(c2nc(NC3CCN(C)C3)nc3c(F)c(-c4cc(O)cc5ccccc45)c(Cl)cc23)CC1 (stereo not drawn) [Compound 360, 1-(4-(6-chloro-8-fluoro-7-(3-hydroxynaphthalen-1-yl)-2-(1-methylpyrrolidin-3-ylamino)quinazolin-4-yl)piperazin-1-yl)prop-2-en-1-one]
Binding % [1]: ++++ (++++ indicates binding activity greater than 75%)

C=CC(=O)N1CCN(c2nc(N)nc3cc(Cl)c(-c4ccc(Cl)cc4)cc23)CC1 [Compound 39, 1-(4-(2-amino-7-chloro-6-(4-chlorophenyl)quinazolin-4-yl)piperazin-1-yl)prop-2-en-1-one]
Binding % [3]: + (+ indicates binding activity from 5% to 25%)

C=CC(=O)N1CCN(c2nc(CN(C)C)nc3c(F)c(-c4c(C)ccc5[nH]ncc45)c(Cl)cc23)CC1 [Compound 254, 1-(4-(6-chloro-2-((dimethylamino)methyl)-8-fluoro-7-(5-methyl-1H-indazol-4-yl)quinazolin-4-yl)piperazin-1-yl)prop-2-en-1-one]
Binding % [1]: +++ (+++ indicates binding activity greater than 50% and up to 75%)

C=CC(=O)N1CCN(c2nc(NC3CCN(CC(F)(F)F)C3)nc3c(F)c(-c4c(C)ccc5[nH]ncc45)c(Cl)cc23)CC1 (stereo not drawn) [Compound 354, 1-(4-(6-chloro-8-fluoro-7-(5-methyl-1H-indazol-4-yl)-2-(1-(2,2,2-trifluoroethyl)pyrrolidin-3-ylamino)quinazolin-4-yl)piperazin-1-yl)prop-2-en-1-one]
Binding % [1]: ++++ (++++ indicates binding activity greater than 75%)

C=CC(=O)N1CCN(c2cnnc3cc(-c4ccccc4F)c(Cl)cc23)CC1 [Compound 159, 1-(4-(6-chloro-7-(2-fluorophenyl)cinnolin-4-yl)piperazin-1-yl)prop-2-en-1-one]
Binding % [2]: +++ (+++ indicates binding activity greater than 50% and up to 75%)

C=CC(=O)N1CCN(c2ncnc3c(OC)c(-c4c(C)ccc5[nH]ncc45)c(Cl)cc23)CC1 [Compound 302, 1-(4-(6-chloro-8-methoxy-7-(5-methyl-1H-indazol-4-yl)quinazolin-4-yl)piperazin-1-yl)prop-2-en-1-one]
Binding % [1]: +++ (+++ indicates binding activity greater than 50% and up to 75%)

C=CC(=O)N1CCN(c2nc(OCCN3CCCC3)nc3c(F)c(-c4c(C)ccc5[nH]ncc45)c(Cl)cc23)CC1 [Compound 358, 1-(4-(6-chloro-8-fluoro-7-(5-methyl-1H-indazol-4-yl)-2-(2-(pyrrolidin-1-yl)ethoxy)quinazolin-4-yl)piperazin-1-yl)prop-2-en-1-one]
Binding % [1]: ++++ (++++ indicates binding activity greater than 75%)

C=CC(=O)N1CCN(c2ncnc3c(OC)c(-c4cc(O)cc5ccccc45)c(Cl)cc23)CC1 [Compound 348, 1-(4-(6-chloro-7-(3-hydroxynaphthalen-1-yl)-8-methoxyquinazolin-4-yl)piperazin-1-yl)prop-2-en-1-one]
Binding % [1]: ++++ (++++ indicates binding activity greater than 75%)

C=CC(=O)N1CCN(c2cc(=O)[nH]c3cc(-c4c(C)ccc5[nH]ncc45)c(Cl)cc23)CC1 [Compound 326, 4-(4-acryloylpiperazin-1-yl)-6-chloro-7-(5-methyl-1H-indazol-4-yl)quinolin-2(1H)-one]
Binding % [1]: + (+ indicates binding activity from 5% to 25%)

C=CC(=O)N1CCN(c2nc(OCCN3CCN(C)CC3)nc3c(F)c(-c4c(C)ccc5[nH]ncc45)c(Cl)cc23)CC1 [Compound 373, 1-(4-(6-chloro-8-fluoro-7-(5-methyl-1H-indazol-4-yl)-2-(2-(4-methylpiperazin-1-yl)ethoxy)quinazolin-4-yl)piperazin-1-yl)prop-2-en-1-one]
Binding % [1]: +++ (+++ indicates binding activity greater than 50% and up to 75%)

C=CC(=O)N1CCN(c2nc(NC3CCOC3)nc3c(F)c(-c4c(C)ccc5[nH]ncc45)c(Cl)cc23)CC1 (stereo not drawn) [Compound 347, 1-(4-(6-chloro-8-fluoro-7-(5-methyl-1H-indazol-4-yl)-2-(tetrahydrofuran-3-ylamino)quinazolin-4-yl)piperazin-1-yl)prop-2-en-1-one]
Binding % [1]: ++++ (++++ indicates binding activity greater than 75%)
